Common to all, as to assay type: biochemical
Details in all cases: apparent Ki via Cheng-Prusoff from IC50; room temperature, 1 nM enzyme

Assay [1] concerns the target factor Xa (Homo sapiens, UniProt P00742). Put plainly: Enzyme assay, inhibition of factor Xa using purified enzyme (chromogenic peptide-p-nitroanilide substrate). As for the experimental part: (§1) All enzyme as says are carried out at room temperature in 96-well microtiter plates using a final enzyme concentration of 1 nM. The concentrations of factor Xa and thrombin are determined by active site titration and the concentrations of all other enzymes are based on the protein concentration supplied by the manufacturer. Compounds according to the invention are dissolved in DMSO, diluted with their respective buffers and assayed at a maximal final DMSO concentration of 1.25%. Compound dilutions are added to wells containing buffer and enzyme and pre-equilibrated for between 5 and 30 minutes. The enzyme reactions are initiated by the addition of substrate and the color developed from the hydrolysis of the peptide-p-nitroanilide substrates is monitored continuously for 5 minutes at 405 nm on a Vmax microplate reader (Molecular Devices). Under these conditions, less than 10% of the substrate is utilized in all assays. […] The apparent Ki values are then determined according to the Cheng-Prusoff equation (IC50=Ki[1+[S]J/Km]) assuming competitive inhibition kinetics.

For assay [2], the target named is T1, trypsin (Bos taurus, UniProt P00760).
T1 construct: factor Xa, thromb in, trypsin; purchased
T1 sequence (P00760 24-246): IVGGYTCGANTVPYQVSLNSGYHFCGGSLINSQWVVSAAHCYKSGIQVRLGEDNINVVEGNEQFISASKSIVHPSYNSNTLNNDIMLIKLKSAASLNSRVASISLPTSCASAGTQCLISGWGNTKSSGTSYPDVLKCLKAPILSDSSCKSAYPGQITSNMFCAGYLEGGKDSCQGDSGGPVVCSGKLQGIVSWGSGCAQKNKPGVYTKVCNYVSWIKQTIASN
Put plainly: Enzyme assay, inhibition of trypsin using purified enzyme (chromogenic peptide-p-nitroanilide substrate). As for the experimental part: as §1

Assay [3] concerns the target thrombin (Homo sapiens, UniProt P00734). Description: Enzyme assay, inhibition of thrombin using purified enzyme (chromogenic peptide-p-nitroanilide substrate). As for the experimental part: as §1, with “Compound dilutions are added to wells containing buffer and enzyme and pre-equilibrated for between 5 and 30 minutes.” left out

factor Xa, sequence (P00742 235-488 limits assumed): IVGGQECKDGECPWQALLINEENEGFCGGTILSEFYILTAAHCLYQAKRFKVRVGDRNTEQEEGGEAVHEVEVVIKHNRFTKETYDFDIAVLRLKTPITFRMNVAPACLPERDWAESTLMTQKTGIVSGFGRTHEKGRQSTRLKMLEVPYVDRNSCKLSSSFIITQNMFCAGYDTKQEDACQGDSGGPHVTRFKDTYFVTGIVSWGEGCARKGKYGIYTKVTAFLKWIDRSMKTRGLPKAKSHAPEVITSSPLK
factor Xa, sequence (P00742 41-179 partner limits assumed): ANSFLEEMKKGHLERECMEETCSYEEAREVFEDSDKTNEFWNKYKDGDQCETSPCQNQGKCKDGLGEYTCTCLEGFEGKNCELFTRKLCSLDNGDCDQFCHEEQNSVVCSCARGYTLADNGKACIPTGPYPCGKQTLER

As for `COc1ccc(-c2ccc(C(=O)NC(CCc3ccccc3)C(COC(C)=O)Cc3cccc(C(=N)N)c3)cc2)cc1OC` (stereo not drawn) [Compound 167], the Ki in assay [1] turned out to be 19 nM; in assay [2], 46 nM; in assay [3], 1230 nM.

On to `CN(C)Cc1cccc(-c2ccc(C(=O)NC(Cc3ccccc3)C(CO)Cc3cccc(C(=N)N)c3)cc2)c1` (stereo not drawn) [Compound 184], for which the figures for the Ki in assay [1], in assay [2] and in assay [3] were 27 nM, 1720 nM and 2710 nM, respectively.

As to `CC(=O)OCC(Cc1cccc(C(=N)N)c1)C(/C=C/c1ccccc1)NC(=O)c1ccc(-c2ccccc2)cc1` (stereo not drawn) [Compound 45], the Ki came to 94 nM in assay [1], 129 nM in assay [2] and 477 nM in assay [3].
